The values that follow come from patent publication US20240398962A1, “DENDRIMER-GLUTAMINE ANTAGONIST CONJUGATES AND METHODS OF USE THEREOF” (The Johns Hopkins University, priority 2021, published 2024).

Test system in one data set: not listed separately
Kind of data set: Stability of the prepared product on storage. As to conditions: should be stored at −80° C. It counts as physicochemical. How it is done: Piperidine (1.00 mL, 10.3 mmol, 20 equiv.) was added and the reaction mixture was stirred at rt for 2 h. The solvent was evaporated and the residue was chromatographed on silica gel (CHCl3/MeOH 1:1+2% Et3N) to afford the desired product I (165 mg, 73%) as a yellowish oil. The prepared product I is very unstable and should be stored at −80° C.
For the molecule `CC(C)OC(=O)[C@H](CCC(=O)C=[N+]=[N-])NP(=O)(OCCCCN)Oc1ccccc1` (stereo partly drawn) [I, Isopropyl (2S)-2-(((4-aminobutoxy)(phenoxy)phosphoryl)amino)-6-diazo-5-oxohexanoate], the “Stability of prepared product” value is reported as “very unstable”.

Test system in another data set: not listed separately
Kind of data set: Liver homogenate stability (compound disappearance by LC-MS/MS). The class given is in vitro ADME. As to conditions: 20 μm, 37° C. As to the method:
Liver or EL4 lymphoma tumor tissues were washed and diluted 10-fold in 0.1 M potassium phosphate buffer and homogenized using a probe sonicator. To evaluate the stability of the analogs 1 mL aliquots were made of each matrix and the analogs were spiked to a final assay concentration of 20 μm. Spiked samples were incubated in an orbital shaker at 37° C. for 1 h, following which reactions were quenched in triplicate with three volumes of acetonitrile containing the internal standard (IS; losartan: 0.5 μm). The samples were vortex-mixed for 30 s and centrifuged at 10 000 g for 10 min at 4° C. Fifty microliters of the supernatant was diluted with 50 μL of water and transferred to a 250 μL polypropylene vial sealed with a Teflon cap. Compound disappearance was monitored over time using liquid chromatography tandem mass spectrometry (LC-MS/MS).
In the case of `CC(C)OC(=O)[C@H](CCC(=O)C=[N+]=[N-])NP(=O)(OCCCCN)Oc1ccccc1` (stereo partly drawn) [I, Isopropyl (2S)-2-(((4-aminobutoxy)(phenoxy)phosphoryl)amino)-6-diazo-5-oxohexanoate], the “Liver homogenate stability (% remaining at 1 h incubation)” value came out at 32%.

For the molecule `CC(C)C[C@H](NC(=O)CCOCCOCCN)C(=O)N[C@@H](CCC(=O)C=[N+]=[N-])C(=O)OC(C)(C)C` [III, t-Butyl (2S,5S)-15-amino-2-(4-diazo-3-oxobutyl)-5-isobutyl-4,7-dioxo-10,13-dioxa-3,6-diazapentadecanoate], the “Liver homogenate stability (% remaining at 1 h incubation)” value was found to be 79%.

For `CC(C)C[C@H](NC(=O)COCCN)C(=O)N[C@@H](CCC(=O)C=[N+]=[N-])C(=O)OC(C)C` [V, Isopropyl (S)-2-((S)-2-(2-(2-aminoethoxy)acetamido)-4-methylpentanamido)-6-diazo-5-oxohexanoate], the “Liver homogenate stability (% remaining at 1 h incubation)” value was 17%.

For the molecule `CC(C)C[C@H](NC(=O)COCCN)C(=O)N[C@@H](CCC(=O)C=[N+]=[N-])C(=O)OC(C)(C)C` [II, t-Butyl (S)-2-((S)-2-(2-(2-aminoethoxy)acetamido)-4-methylpentanamido)-6-diazo-5-oxohexanoate], the “Liver homogenate stability (% remaining at 1 h incubation)” value was determined as 94%.

Turning to `CC(C)C[C@H](NC(=O)OCC1c2ccccc2-c2ccccc21)C(=O)N[C@@H](CCC(=O)C=[N+]=[N-])C(=O)N[C@@H](Cc1ccccc1)C(=O)NCCOCCOCCOCCC(=O)O` [VII, (5S,8S,11S)-11-benzyl-8-(4-diazo-3-oxobutyl)-1-(9H-fluoren-9-yl)-5-isobutyl-3,6,9,12-tetraoxo-2,16,19,22-tetraoxa-4,7,10,13-tetraazapentacosan-25-oic acid], the “Liver homogenate stability (% remaining at 1 h incubation)” value was 0%.

In the case of `CC(C)C[C@H](NC(=O)OCC1c2ccccc2-c2ccccc21)C(=O)N[C@@H](CCC(=O)C=[N+]=[N-])C(=O)N[C@@H](Cc1ccccc1)C(=O)NCCOCCOCCOCCOCCC(=O)O` [VI, (5S,8S,11S)-11-Benzyl-8-(4-diazo-3-oxobutyl)-1-(9H-fluoren-9-yl)-5-isobutyl-3,6,9,12-tetraoxo-2,16,19,22,25-pentaoxa-4,7,10,13-tetraazaoctacosane-28-oic acid], the “Liver homogenate stability (% remaining at 1 h incubation)” value came out at 12%.

Take `CC(C)C[C@H](NC(=O)CCOCCOCCN)C(=O)N[C@@H](CCC(=O)C=[N+]=[N-])C(=O)OC(C)C` [IV, Isopropyl (2S,5S)-15-amino-2-(4-diazo-3-oxobutyl)-5-isobutyl-4,7-dioxo-10,13-dioxa-3,6-diazapentadecanoate]: the “Liver homogenate stability (% remaining at 1 h incubation)” value is 0%.

The subject of the next data set is glutaminase.
Assay: not given
As to conditions: cited from earlier work.
Take `[N-]=[N+]=CC(=O)CC[C@H](N)C(=O)O` [DON, 6-diazo-5-oxo-L-norleucine]: the “Inhibition of glutamine-utilizing enzymes including glutaminase” value is listed as “low micromolar levels”.
